{"source": "patent US20120251551A1", "about": "“Substituted (Heteroarylmethyl)thiohydantoins” (BAYER PHARMA AKTIENGESELLSCHAFT, priority 2009, published 2012)", "key": {"[1]": {"experiment": "Determination of metabolic stability in vitro (calculation of hepatic in vivo blood clearance)", "type": "in vitro ADME", "conditions": "pH 7.4, human liver microsomes, calculated from half-life, read-out: calculated hepatic in vivo blood clearance (CL) (converted)", "method": "Determination of Metabolic Stability In Vitro (Including Calculation of Hepatic In Vivo Blood Clearance (CL) and of Maximal Oral Bioavailability (Fmax))\nThe metabolic stability of test compounds in vitro was determined by incubating them at 1 μM with a suspension of human liver microsomes in 100 mM phosphate buffer, pH7.4 (NaH2PO4×H2O+Na2HPO4×2H2O) at a protein concentration of 0.5 mg/ml and at 37° C. The reaction was activated by adding a co-factor mix containing 1.2 mg NADP, 3 IU glucose-6-phosphate dehydrogenase, 14.6 mg glucose-6-phosphate and 4.9 mg MgCl2 in phosphate buffer, pH 7.4. Organic solvent in the incubations was limited to <0.2% dimethylsulfoxide (DMSO) and <1% methanol. During incubation, the microsomal suspensions were continuously shaken and aliquots were taken at 2, 8, 16, 30, 45 and 60 min, to which equal volumes of cold methanol were immediately added. Samples were freezed at −20° C. over night, subsequently centrifuged for 15 minutes at 3000 rpm and the supernatant was analyzed with an Agilent 1200 HPLC-system with LCMS/MS detection.\nThe half-life of a test compound was determined from the concentration-time plot. From the half-life the intrinsic clearances were calculated. Together with the additional parameters liver blood flow, specific liver weight and microsomal protein content the hepatic in vivo blood clearance (CL) and the maximal oral bioavailability (Fmax) were calculated for the different species. The following parameter values were used: Liver blood flow—1.3 l/h/kg human; specific liver weight—21 g/kg human; microsomal protein content—40 mg/g.\nWith the described assay only phase-I metabolism of microsomes is reflected, e.g. typically oxidoreductive reactions by cytochrome P450 enzymes and flavin mono-oxygenases (FMO) and hydrolytic reactions by esterases (esters and amides)."}, "[2]": {"biological_target": "T1, human androgen receptor W741L mutant (Homo sapiens, UniProt P10275, W742L)", "T1 construct": "expressed in transfected cells; host or cells: PC-3 cells, transient transfection with a pSG5-derived plasmid", "T1 sequence (P10275 1-920 W742L)": "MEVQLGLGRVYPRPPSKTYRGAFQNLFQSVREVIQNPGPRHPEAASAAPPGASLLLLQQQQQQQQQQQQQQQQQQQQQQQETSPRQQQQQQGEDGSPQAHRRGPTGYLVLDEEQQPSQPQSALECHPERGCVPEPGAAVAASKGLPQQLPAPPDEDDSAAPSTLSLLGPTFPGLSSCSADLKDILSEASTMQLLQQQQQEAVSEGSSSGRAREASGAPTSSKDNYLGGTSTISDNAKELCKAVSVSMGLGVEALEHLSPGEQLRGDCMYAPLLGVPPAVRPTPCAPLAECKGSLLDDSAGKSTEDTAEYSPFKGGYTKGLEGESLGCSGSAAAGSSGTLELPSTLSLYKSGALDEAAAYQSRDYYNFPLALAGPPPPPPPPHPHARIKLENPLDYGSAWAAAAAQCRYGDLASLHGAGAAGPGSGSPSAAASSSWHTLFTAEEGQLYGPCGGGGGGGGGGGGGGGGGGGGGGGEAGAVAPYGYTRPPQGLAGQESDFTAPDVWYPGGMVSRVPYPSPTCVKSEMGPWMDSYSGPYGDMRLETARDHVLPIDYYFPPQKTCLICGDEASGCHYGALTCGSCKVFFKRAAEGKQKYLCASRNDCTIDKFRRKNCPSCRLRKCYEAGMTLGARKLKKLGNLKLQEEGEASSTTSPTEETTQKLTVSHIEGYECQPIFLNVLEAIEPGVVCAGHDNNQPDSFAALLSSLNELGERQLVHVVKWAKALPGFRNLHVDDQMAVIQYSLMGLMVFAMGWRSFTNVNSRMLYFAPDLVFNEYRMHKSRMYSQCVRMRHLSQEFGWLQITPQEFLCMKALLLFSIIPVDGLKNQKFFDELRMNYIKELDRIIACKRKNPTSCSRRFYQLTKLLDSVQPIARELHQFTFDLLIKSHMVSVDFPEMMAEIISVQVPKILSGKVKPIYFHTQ", "experiment": "Cell-based transactivation assay for human androgen receptor mutant W741L", "experimental": "(§1) Cell-Based Transactivation Assay for Human Androgen Receptor Mutant W741L or W741C\n(§2) PC-3 cells (Kaighn et al., Invest. Urol. 17:16-23, 1979) were grown in 5% charcoal-stripped medium and seeded at a concentration of 10000 cells per well in a 96-well plate. They were transiently transfected with a pSG5-derived plasmid (#216201 from Stratagene, La Jolla, Calif., USA) coding for the human androgen receptor W741L or W741C mutant Mara et al., Cancer Research, 63: 149-153, 2003) and an MMTV-Luciferase reporter plasmid based on pGL4.14 14 (#E6691, Promega Corporation, Madison, Wis., USA). The compound to be tested was added at a concentration range varying from 1×10^−9 to 1×10 M together with 1×10^−10 R1881. After 24 h incubation at 37° C. in a 5% CO2 atmosphere, 100 μl of Steady Glo Lysis and Detection reagent (Steady Glo Luciferase assay system E2550 from Promega Corporation. Madison, Wis., USA) were added. Antagonistic activity was determined by measuring Luciferase activity in a Victor 3 Luminometer (PerkinElmer, Waltham, Mass., USA) using the Steady Glo Luciferase Assay (E2550, Promega). IC50 values were calculated for anti-androgenic activity."}, "[3]": {"biological_target": "T2, wild-type human androgen receptor (Homo sapiens, UniProt P10275)", "T2 construct": "expressed in transfected cells", "T2 sequence (P10275 1-920)": "T1 sequence (P10275 1-920 W742L) with L742W", "experiment": "Cell-based transactivation assay for wild-type human androgen receptor (PC-3 cells, MMTV-luciferase reporter)", "experimental": "Cell-Based Transactivation Assay for Wild-Type Human Androgen Receptor\nPC-3 cells (Kaighn et al., Invest. Urol. 17:16-23, 1979) stably transfected with the human androgen receptor (Swiss-Prot Acc. No. P10275, Entry Version 159, Sequence Version 2) and a reporter plasmid based on pGL4.14 (#E6691, Promega Corporation, Madison, Wis., USA) containing the MMTV promoter (Cato et al., EMBO J. 6:363-8, 1987) were used. They were grown in 5% charcoal-stripped medium and seeded at a concentration of 1000 cells per well in a 384-well plate. For determination of antagonistic activity, the plate additionally contained the compound to be tested at a concentration range varying from 5.12×10^−12 to 1×10^−5 M. The assay was performed in presence of 1×10^−10 R1881 (also known as methyltrienolone). After overnight incubation at 37° C. in a 5% CO2 atmosphere, 15 μl of Steady Glo Lysis and Detection reagent (Steady Glo Luciferase assay system E2550 from Promega Corporation. Madison, Wis., USA) were added. IC50 was calculated for anti-androgenic activity as well as percentage inhibition in presence of 2 μM compound in comparison to non-stimulated luciferase signal. Agonistic activity was determined using the same concentration range of compound in the absence of R1881 by measuring Luciferase activity as above. EC50 was calculated for androgenic activity. Assay/read plates were used (Polystyrol; 384, NV-white cell culture plates; Perkin Elmer)."}, "LNCaP cells": {"system": "LNCaP cells", "experiment": "Proliferation assay with LNCaP cells", "type": "cell-based", "conditions": "Homo sapiens, 168 h, R1881 (1×10^−10) stimulated growth, day 7, read-out: inhibition IC50 (LNCaP)", "method": "Proliferation Assay with LNCaP Cells\nLNCaP cells (Horoszewicz et al., in “Models for Prostate Cancer” (ed. G. P. Murphy), Alan R. Liss, New York 1981, p. 115-132; Horoszewicz et al., Cancer Res. 43:1809-1818, 1983) were seeded at 2000 cells/well in 96-well plates in RPMI (F1235, Biochrom AG, Berlin, Germany) without phenol red supplemented with 5% charcoal-stripped serum. After 3 days, the cells were treated with R1881) (1×10^−10) and compound (day 0). Cell number was determined by Alamar Blue (DAL1100, Invitrogen, Life Technologies, Lohne, Germany) staining (2.5 h) at day 0 and day 7. Fluorescence was determined in Victor3 (Excitation 530 nm; emission 590 nm). Stimulated growth was defined as the signal measured at day 7 for cells treated only with R1881. Basal level was defined as the signal measured at day 7 for cells grown without R1881."}, "[4]": {"biological_target": "T3, human androgen receptor W741C mutant (Homo sapiens, UniProt P10275, W742C)", "T3 construct": "expressed in transfected cells; host or cells: PC-3 cells, transient transfection with a pSG5-derived plasmid", "T3 sequence (P10275 1-920 W742C)": "T1 sequence (P10275 1-920 W742L) with L742C", "experiment": "Cell-based transactivation assay for human androgen receptor mutant W741C", "experimental": "as §1, §2"}, "VCaP cells": {"system": "VCaP cells", "experiment": "Proliferation assay with VCaP cells", "type": "cell-based", "conditions": "Homo sapiens, 168 h, R1881 (1×10^−10) stimulated growth, day 7, read-out: Antiproliferative activity VCaP IC50", "method": "Proliferation Assay with VCaP Cells\nVCaP cells ((Korenchuk et al., In Vivo 15: 163-168, 2001)) were seeded at 16 000 cells/well in 96-well plates in DMEM (F0445, Biochrom AG, Berlin, Germany) with phenol red supplemented with 10% charcoal-stripped serum. After 1 day, the cells were treated with R1881 (1×10^−10) and compound (day 0). Cell number was determined by Alamar Blue (DAL1100, Invitrogen, Life Technologies, Lohne, Germany) staining (2.5 h) at day 0 and day 7. Fluorescence was determined in Victor3 (Excitation 530 nm; emission 590 nm). Stimulated growth was defined as the signal measured at day 7 for cells treated only with R1881. Basal level was defined as the signal measured at day 7 for cells grown without R1881."}}, "note": "Where a chain is given by its changes, count along the chain named.", "data": [{"compound": "CC1(C)C(=O)N(c2ccc(C#N)c(C(F)(F)F)c2)C(=S)N1Cc1cnc(-n2ccnc2)nc1", "note": "[Example 17, 4-(3-{[2-(1H-Imidazol-1-yl)pyrimidin-5-yl]methyl}-4,4-dimethyl-5-oxo-2-thioxoimidazolidin-1-yl)-2-(trifluoromethyl)benzonitrile]", "values": [{"measurement": "CLhep predicted at 1 µM", "setting": "[1]", "result": 1.5, "unit": "mL/min/kg"}, {"measurement": "IC50", "setting": "[2]", "result": 20.6, "unit": "nM"}, {"measurement": "EC50", "setting": "[3]", "result": "> 10", "unit": "µM"}]}, {"compound": "Cn1cc(-c2ccc(CN3C(=S)N(c4ccc(C#N)c(C(F)(F)F)c4)C(=O)C3(C)C)cn2)cn1", "note": "[Example 18, 4-(4,4-Dimethyl-3-{[6-(1-methyl-1H-pyrazol-4-yl)pyridin-3-yl]methyl}-5-oxo-2-thioxoimidazolidin-1-yl)-2-(trifluoromethyl)benzonitrile]", "values": [{"measurement": "IC50", "setting": "LNCaP cells", "result": 117, "unit": "nM"}, {"measurement": "CLhep predicted at 1 µM", "setting": "[1]", "result": 1.83, "unit": "mL/min/kg"}, {"measurement": "IC50", "setting": "[2]", "result": 94.6, "unit": "nM"}, {"measurement": "EC50", "setting": "[3]", "result": 9.57, "unit": "µM"}]}, {"compound": "Cc1cn(-c2ccc(CN3C(=S)N(c4ccc(C#N)c(C(F)(F)F)c4)C(=O)C3(C)C)cn2)cn1", "note": "[Example 19, 4-(4,4-Dimethyl-3-{[6-(4-methyl-1H-imidazol-1-yl)pyridin-3-yl]methyl}-5-oxo-2-thioxoimidazolidin-1-yl)-2-(trifluoromethyl)benzonitrile]", "values": [{"measurement": "IC50", "setting": "LNCaP cells", "result": 96, "unit": "nM"}, {"measurement": "IC50", "setting": "[4]", "result": 52.9, "unit": "nM"}, {"measurement": "IC50", "setting": "[2]", "result": 201, "unit": "nM"}, {"measurement": "EC50", "setting": "[3]", "result": "> 10", "unit": "µM"}]}, {"compound": "Cn1nccc1-c1ccc(CN2C(=S)N(c3ccc(C#N)c(C(F)(F)F)c3)C(=O)C2(C)C)cn1", "note": "[Example 20, 4-(4,4-Dimethyl-3-{[6-(1-methyl-1H-pyrazol-5-yl)pyridin-3-yl]methyl}-5-oxo-2-thioxoimidazolidin-1-yl)-2-(trifluoromethyl)benzonitrile]", "values": [{"measurement": "IC50", "setting": "LNCaP cells", "result": 46, "unit": "nM"}, {"measurement": "IC50", "setting": "[4]", "result": 99.9, "unit": "nM"}, {"measurement": "IC50", "setting": "[2]", "result": 233, "unit": "nM"}, {"measurement": "EC50", "setting": "[3]", "result": "> 10", "unit": "µM"}]}, {"compound": "Cc1nc(Cl)cn1-c1ccc(CN2C(=S)N(c3ccc(C#N)c(C(F)(F)F)c3)C(=O)C2(C)C)cn1", "note": "[Example 21, 4-(3-{[6-(4-Chloro-2-methyl-1H-imidazol-1-yl)pyridin-3-yl]methyl}-4,4-dimethyl-5-oxo-2-thioxoimidazolidin-1-yl)-2-(trifluoromethyl)benzonitrile]", "values": [{"measurement": "CLhep predicted at 1 µM", "setting": "[1]", "result": 6.67, "unit": "mL/min/kg"}, {"measurement": "IC50", "setting": "[2]", "result": 296, "unit": "nM"}, {"measurement": "EC50", "setting": "[3]", "result": "> 10", "unit": "µM"}]}, {"compound": "CC1(C)C(=O)N(c2ccc(C#N)c(C(F)(F)F)c2)C(=S)N1Cc1ccc(-n2cnc(C(F)(F)F)c2)nc1", "note": "[Example 23, 4-[4,4-Dimethyl-5-oxo-2-thioxo-3-({6-[4-(trifluoromethyl)-1H-imidazol-1-yl]pyridin-3-yl}methyl)imidazolidin-1-yl]-2-(trifluoromethyl)benzonitrile]", "values": [{"measurement": "IC50", "setting": "VCaP cells", "result": 340, "unit": "nM"}, {"measurement": "IC50", "setting": "LNCaP cells", "result": 160, "unit": "nM"}, {"measurement": "IC50", "setting": "[4]", "result": 148, "unit": "nM"}, {"measurement": "IC50", "setting": "[2]", "result": 83, "unit": "nM"}, {"measurement": "EC50", "setting": "[3]", "result": "> 10", "unit": "µM"}]}, {"compound": "CC1(C)C(=O)N(c2ccc(C#N)c(C(F)(F)F)c2)C(=S)N1Cc1ccc(-c2cccs2)nc1", "note": "[Example 24, 4-(4,4-Dimethyl-5-oxo-3-{[6-(thien-2-yl)pyridin-3-yl]methyl}-2-thioxoimidazolidin-1-yl)-2-(trifluoromethyl)benzonitrile]", "values": [{"measurement": "CLhep predicted at 1 µM", "setting": "[1]", "result": 6.67, "unit": "mL/min/kg"}, {"measurement": "IC50", "setting": "[2]", "result": 202, "unit": "nM"}, {"measurement": "EC50", "setting": "[3]", "result": "> 10", "unit": "µM"}]}]}
